Assay results from ChEMBL document CHEMBL1158050, “Minor sesquiterpenes with new carbon skeletons from the brown alga Dictyopteris divaricata” (J Nat Prod, 2006).

Columns and labels:
Format in all cases: functional, cell-based
[1] = system: A549; assay: Cytotoxicity against human A549 cells by MTT assay
[2] = system: Bel-7402; assay: Cytotoxicity against human Bel-7402 cells by MTT assay
[3] = system: BGC-823; assay: Cytotoxicity against human BGC-823 cells by MTT assay
[4] = system: HCT-8; assay: Cytotoxicity against human HCT8 cells by MTT assay
[5] = system: MCF7; assay: Cytotoxicity against human MCF7 cells by MTT assay

Measured: IC50

CC(=O)C1=C2[C@H](C(C)C)CC[C@@H](C)[C@@]2(O)CC1=O
> 10 µg/mL: all assays above

CC(=O)C1=C[C@@H]2[C@H](C(C)C)CC[C@@H](C)[C@]2(O)C1
> 10 µg/mL: all assays above

CC(C)[C@@H]1CC[C@@H](C)[C@@]2(O)C1=CC(=O)[C@@H]2C(C)O (stereo not given in full)
> 10 µg/mL: all assays above

CC(=O)[C@@H]1C[C@]2(O)[C@@H]([C@H]1O)[C@H](C(C)C)CC[C@H]2C
> 10 µg/mL: all assays above

CC(=O)[C@H]1C[C@]2(O)[C@@H]([C@@H]1O)[C@H](C(C)C)CC[C@H]2C
> 10 µg/mL: all assays above

CC(=O)C1=C2[C@@H](C)CC[C@H](C(C)C)[C@@]2(O)CC1=O
> 10 µg/mL: all assays above
